Among the data in US8309546B2, “Morpholinopurine derivatives” (Daiichi Sankyo Company, Limited, priority 2008, dated 2012) are GI50 and IC50 values, retold here.

Experiment [1] relates to human endometrial cancer cell strain AN3CA. The experiment can be described thus: Cell growth inhibition test (MTT), AN3CA. The conditions noted are these: AN3-CA, 72 h, 3 days culture, read-out: concentration exhibiting anti-cell effect (GI50). It counts as cell-based. Here is the method:
(§1) After a cultured cancer cell strain was treated with a test compound for a predetermined period, a cell growth inhibition test was performed by measuring the living cell count by the 3-(4,5-dimethylthiazol-2-yl)-2,5-diphenyltetrazoliumbromide (MTT) method.
(§2) Human endometrial cancer cell strain AN3CA, human ovary cancer cell strain IGROV1, and human colon cancer cell strain HT29 were seeded in a 96-well plate at 5000, 1000, and 5000 cells, respectively, per well. On the following day of seeding, a test compound having a predetermined concentration was added and the culture was continued at 37° C. in 5% CO2 for 3 days. On the final day of culture, an MTT reaction solution was added and the resulting mixture was reacted for 4 hours to form formazan by dehydrogenases contained in living cells. Subsequently, the culture broth was removed, DMSO was added to solubilize formazan, and the amount of produced formazan was determined by measuring absorbance at 540 nm using a microplate reader.
(§3) Since correlations of the amount of produced formazan and the living cell count had been confirmed, the cell growth rate was calculated by the following formula. Cell growth rate (T/C %) after addition of test compound=100×[(B−C)/(A−C)] A: Absorbance of well not containing test compound (final culture day) B: Absorbance of well containing test compound (final culture day) C: Absorbance of well immediately before addition of test compound (following day of cell seeding)
(§4) Furthermore, the cell growth rate at each concentration of serially diluted test compound solutions was obtained, and the concentration of the test compound resulting in a 50% growth rate was obtained as the GI50 value from two concentrations including 50% therebetween and the growth rates were selected.

Experiment [2] has as its system human colon cancer cell strain HT29. In words: Cell growth inhibition test (MTT), HT29. It counts as cell-based. The following applies: HT-29, 72 h, HT29, 3 days culture, read-out: concentration exhibiting anti-cell effect (GI50). Here is the method:
as §1, §2, §3, §4

In experiment [3] the target is T1, human mTOR (His-tagged mTOR (1362C)) (Homo sapiens, UniProt P42345).
T1 construct: the 1362 to 2549 amino acid portion on the C terminus side of human mTOR; His tag (N); made in house
T1 sequence (P42345 1362-2549): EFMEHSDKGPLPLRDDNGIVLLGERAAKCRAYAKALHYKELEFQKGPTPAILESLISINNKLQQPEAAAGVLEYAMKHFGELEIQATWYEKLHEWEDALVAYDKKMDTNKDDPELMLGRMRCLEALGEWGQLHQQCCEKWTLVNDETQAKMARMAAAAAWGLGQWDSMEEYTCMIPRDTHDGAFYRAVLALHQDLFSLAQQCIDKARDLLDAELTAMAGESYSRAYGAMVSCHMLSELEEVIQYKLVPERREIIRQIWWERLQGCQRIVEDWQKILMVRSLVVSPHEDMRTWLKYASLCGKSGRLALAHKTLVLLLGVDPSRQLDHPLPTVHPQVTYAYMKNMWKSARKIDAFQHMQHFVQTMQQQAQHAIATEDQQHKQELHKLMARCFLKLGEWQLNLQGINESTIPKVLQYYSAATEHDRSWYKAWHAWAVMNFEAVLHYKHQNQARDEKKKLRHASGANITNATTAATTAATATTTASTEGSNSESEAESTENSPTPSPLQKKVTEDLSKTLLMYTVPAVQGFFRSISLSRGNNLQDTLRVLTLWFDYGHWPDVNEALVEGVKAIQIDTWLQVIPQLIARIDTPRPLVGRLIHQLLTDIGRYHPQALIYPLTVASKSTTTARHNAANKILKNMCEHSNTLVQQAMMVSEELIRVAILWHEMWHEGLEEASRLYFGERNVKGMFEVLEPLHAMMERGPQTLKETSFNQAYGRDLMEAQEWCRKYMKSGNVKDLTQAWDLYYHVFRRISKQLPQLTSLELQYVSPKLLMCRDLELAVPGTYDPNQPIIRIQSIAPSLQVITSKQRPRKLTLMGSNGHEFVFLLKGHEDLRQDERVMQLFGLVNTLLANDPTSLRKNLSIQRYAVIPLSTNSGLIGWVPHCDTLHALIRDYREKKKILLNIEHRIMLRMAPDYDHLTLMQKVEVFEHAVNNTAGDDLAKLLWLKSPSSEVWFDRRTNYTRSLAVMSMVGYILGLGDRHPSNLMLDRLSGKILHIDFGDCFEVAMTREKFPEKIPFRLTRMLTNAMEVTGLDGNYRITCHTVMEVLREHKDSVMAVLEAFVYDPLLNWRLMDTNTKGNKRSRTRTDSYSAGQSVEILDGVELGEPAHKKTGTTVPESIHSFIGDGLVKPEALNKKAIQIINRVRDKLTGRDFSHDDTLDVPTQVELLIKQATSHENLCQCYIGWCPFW
In words: mTOR kinase activity inhibition assay. It counts as biochemical. The conditions noted are these: HTRF, read-out: IC50 against mTOR. As to the method: The mTOR kinase activity was determined in the presence and absence of a test compound. A substrate peptide is phosphorylated by mTOR kinase activity. A complex of streptavidin-XL665 and anti-phosphorylated S6K (Thr389) antibody-anti-mouse IgG-cryptate binds to this phosphorylated peptide. At this time, irradiation of excitation light induces transfer of fluorescence resonance energy from the excited cryptate to XL665, emitting fluorescence at 665 nm. Utilizing this principle, mTOR kinase activity was detected. When the mTOR inhibitor is present, phosphorylation of a substrate peptide is inhibited, and the biding of the above-mentioned complex to the substrate peptide is inhibited.
A His tag was introduced into the N terminus end of the 1362 to 2549 amino acid portion on the C terminus side of human mTOR, and a cell line was prepared, so that His-tagged mTOR should be constantly expressed in a HEK293 cell. A cell lysate was prepared from this HEK293 cell which constantly expressed His-tagged mTOR (1362C), and a crude product of His-tagged mTOR (1362C) was obtained by a usual method utilizing His tag.
Subsequently, an mTOR enzyme solution was prepared which contained the above-mentioned His-tagged mTOR (1362C) enzyme and 8 μg/ml biotinylated peptide (Biotin-Ahx-[…]-amide [Sigma]), as well as 50 mM HEPES (pH 7.5), 20 mM MnCl2, 1 mg/ml BSA, a suitable amount of protease inhibitor cocktail (Complete EDTA free, Roche Ltd.), 100 ng/ml calyculin A, and 4 μg/ml cantharidin as other components.
The test compound was dissolved in dimethyl sulfoxide (DMSO) and serially diluted with 20 μm ATP solution (50 mM HEPES (pH 7.5), 20 μM ATP) to obtain concentrations required for the assay. 5 μl of this compound solution was added to each well of a 384-well small volume white plate manufactured by Greiner Bio-One Co., Ltd.
5 μl of the mTOR enzyme solution was added to the above-mentioned well containing the test compound and the resulting mixture was left standing for 3 hours room temperature to proceed an enzymatic reaction.
The same procedure was performed using a solution obtained by dissolving DMSO in 20 μM ATP solution as a positive control and a solution obtained by dissolving DMSO in 50 mM HEPES buffer (pH 7.5) as a negative control.
After the enzymatic reaction, 5 μl each of an europium solution (a solution obtained by dissolving anti-mouse IgG-cryptate [SCETI Medical Labo K.K.] and anti-phosphorylation S6K [Thr389] antibody [Cell Signaling Technology Inc.] in 50 mM HEPES [pH 7.5], 100 mM EDTA, and 1.5 mg/ml BSA) and an XL665 solution (a solution obtained by dissolving Streptavidin-XL 665 [SCETI Medical Labo K.K.] in 50 mM HEPES [pH 7.5], 100 mM EDTA, 0.8 M KF, and 1.5 mg/ml BSA) were added in this order and mixed and the resulting mixture was left standing overnight at 4° C. On the following day, the mixture was returned to room temperature and then irradiated with 337-nm excitation light and fluorescence at 620 and 665 nm was measured with RUBYstar (BMG LABTECH JAPAN Ltd.).
mTOR inhibitory activity (%) was calculated using the ratio calculated from the measured values as an indicator of enzyme activity. Here, the ratio was calculated by the following formula (1). Ratio=10,000×fluorescence at 665 nm/fluorescence at 620 nm (1)
mTOR enzyme inhibitory activity (%) was calculated by the following formula (2). mTOR enzyme inhibitory activity (%)=100×[(P−S)/(P−N)] (2) P: Ratio in positive control well N: Ratio in negative control well S: Ratio in well containing the test compound
Furthermore, an optimal curve was created using the concentrations of the serially diluted test compound solutions and mTOR enzyme inhibitory activity (%) at each concentration to obtain the concentration showing 50% inhibition as the IC50 value of mTOR enzyme inhibitory activity.

Experiment [4] has as its system human ovary cancer cell strain IGROV1. The experiment can be described thus: Cell growth inhibition test (MTT), IGROV1. Format: cell-based. The following applies: IGROV-1, 72 h, IGROV1, 3 days culture, read-out: concentration exhibiting anti-cell effect (GI50). Here is the method: as §1, §2, §3, §4
The target of another experiment is PI3Kα (Homo sapiens, UniProt P42336). The experiment can be described thus: PI3K kinase activity inhibition assay. The conditions noted are these: Kinase-Glo Plus ATP detection, read-out: IC50 against PI3K. Format: biochemical. As to the method:
PI3Kα kinase activity was determined in the presence and absence of a test compound. The test compound was dissolved in DMSO and diluted serially with an ATP solution (30 μm ATP, 50 mM HEPES, pH 7.4, 50 mM NaCl, 0.05% CHAPS, 10 mM MgCl2, and 5 mM dithiothreitol [DTT]). First, 7 μl each of the serially diluted test compound solutions was added to each well of a black 384-well plate. Subsequently, 7 μl of a phosphatidylinositol 4,5-bisphosphate (PIP2) solution (45 μm PIP2, 50 mM HEPES, pH 7.4, 50 mM NaCl, 0.05% CHAPS, 10 mM MgCl2, and 5 mM DTT) was added to each well of the 384-well plate. Finally, 7 μl of a solution containing PI3Kα (50 nM PI3Kα, 50 mM HEPES, pH 7.4, 50 mM NaCl, 0.05% CHAPS, 10 mM MgCl2, and 5 mM DTT) was added to each well of the 384-well plate to initiate a reaction. The mixture was reacted at room temperature for 2 hours and then 21 μl of the Kinase-Glo Plusreagent (Promega) was, added to each well of the 384-well plate to terminate the reaction. After the termination of the reaction, the solution was left standing for 15 minutes and then luminescence was measured with ARVO (PerkinElmer Co., Ltd.) to detect ATP remaining in the reaction solution.
The amount of ATP consumed in the reaction was obtained for each well and used as an indicator of PI3Kαkinase activity. The PI3Kα kinase activity in wells not containing the test compound was calculated by the following formula (1). Furthermore, the PI3Kα kinase activity in wells containing the test compound was calculated by the following formula (2). The PI3Kα inhibitory activity (%) of the test compound was calculated by the following formula (3). PI3Kα kinase activity in wells not containing the test compound=B−C (1) PI3Kα kinase activity in wells containing the test compound=B−P (2) PI3Kα inhibitory activity (%) of test compound=100−100×[(B−P)/(B−C)] (3) B: Measured value in wells not containing PI3Kα or the test compound C: Measured value in wells containing PI3Kα and not containing the test compound P: Measured value in wells containing PI3Kα and the test compound
Furthermore, an optimal curve was calculated with Graph Pad Prism 4 using concentrations of the serially diluted test compound solutions and PI3Kα inhibitory activity (%) at each concentration to obtain the concentration showing 50% inhibition as the IC50 value of PI3Kα inhibitory activity.

Molecules are shown by their SMILES.

PI3Kα, sequence (P42336 whole entry, species assumed): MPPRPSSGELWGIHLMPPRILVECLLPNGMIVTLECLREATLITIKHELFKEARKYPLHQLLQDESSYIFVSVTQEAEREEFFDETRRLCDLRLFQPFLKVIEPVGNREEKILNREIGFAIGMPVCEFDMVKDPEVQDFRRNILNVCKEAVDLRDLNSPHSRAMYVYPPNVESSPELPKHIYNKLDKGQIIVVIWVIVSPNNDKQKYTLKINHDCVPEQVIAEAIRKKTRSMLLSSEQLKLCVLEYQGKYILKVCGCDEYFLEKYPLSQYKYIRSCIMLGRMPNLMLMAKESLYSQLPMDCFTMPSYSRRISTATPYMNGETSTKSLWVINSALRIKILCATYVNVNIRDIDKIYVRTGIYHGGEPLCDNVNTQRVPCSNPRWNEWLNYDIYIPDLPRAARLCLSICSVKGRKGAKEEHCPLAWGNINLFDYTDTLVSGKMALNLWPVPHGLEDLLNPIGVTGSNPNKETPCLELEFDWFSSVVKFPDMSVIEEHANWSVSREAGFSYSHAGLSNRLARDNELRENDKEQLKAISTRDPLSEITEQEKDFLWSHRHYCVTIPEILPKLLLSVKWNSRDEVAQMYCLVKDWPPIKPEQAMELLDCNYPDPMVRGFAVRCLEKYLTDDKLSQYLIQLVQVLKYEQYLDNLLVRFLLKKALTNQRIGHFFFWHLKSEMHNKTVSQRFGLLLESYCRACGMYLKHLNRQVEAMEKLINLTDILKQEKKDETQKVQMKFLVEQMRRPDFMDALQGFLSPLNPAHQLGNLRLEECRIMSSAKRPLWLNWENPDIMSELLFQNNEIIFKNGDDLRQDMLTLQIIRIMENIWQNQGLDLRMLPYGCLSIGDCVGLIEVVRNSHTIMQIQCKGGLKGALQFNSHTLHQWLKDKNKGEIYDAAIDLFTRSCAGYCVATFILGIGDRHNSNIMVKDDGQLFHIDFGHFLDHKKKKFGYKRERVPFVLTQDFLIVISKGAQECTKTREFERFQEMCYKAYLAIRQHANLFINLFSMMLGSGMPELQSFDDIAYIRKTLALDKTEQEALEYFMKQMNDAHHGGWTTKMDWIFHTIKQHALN
PI3Kα, sequence (P27986 whole entry partner, species assumed): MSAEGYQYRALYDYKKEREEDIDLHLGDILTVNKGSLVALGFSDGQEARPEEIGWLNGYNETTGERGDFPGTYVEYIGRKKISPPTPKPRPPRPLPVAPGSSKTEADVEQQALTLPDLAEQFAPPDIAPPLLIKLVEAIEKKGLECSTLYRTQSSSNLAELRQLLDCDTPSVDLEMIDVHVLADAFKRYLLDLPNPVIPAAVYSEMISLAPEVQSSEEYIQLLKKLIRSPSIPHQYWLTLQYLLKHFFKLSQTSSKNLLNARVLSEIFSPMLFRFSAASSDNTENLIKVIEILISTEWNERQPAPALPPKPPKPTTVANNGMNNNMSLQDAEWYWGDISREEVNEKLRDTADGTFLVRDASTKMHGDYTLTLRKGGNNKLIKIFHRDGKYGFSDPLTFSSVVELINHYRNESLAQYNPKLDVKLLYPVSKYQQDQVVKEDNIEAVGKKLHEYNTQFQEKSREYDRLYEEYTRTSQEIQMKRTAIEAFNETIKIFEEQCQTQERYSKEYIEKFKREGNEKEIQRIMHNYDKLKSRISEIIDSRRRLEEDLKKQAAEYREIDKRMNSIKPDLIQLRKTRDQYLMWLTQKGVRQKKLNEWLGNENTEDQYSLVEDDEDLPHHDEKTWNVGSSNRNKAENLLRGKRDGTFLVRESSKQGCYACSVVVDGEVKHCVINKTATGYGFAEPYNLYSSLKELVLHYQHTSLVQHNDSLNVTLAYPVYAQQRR

Take `CNc1ncc(-c2nc(N3CCOCC3)c3nc(N4CCN(S(C)(=O)=O)CC4)n(CC4CCOC4)c3n2)cn1` (stereo not shown) [Example 25, N-Methyl-5-{8-[4-(methylsulfonyl)piperazin-1-yl]-6-morpholin-4-yl-9-(tetrahydrofuran-3-ylmethyl)-9H-purin-2-yl}pyrimidin-2-amine]: the GI50 in experiment [1], in experiment [2] and in experiment [4] was at most 5000 nM each time. The values for the IC50 (in experiment [3]; at PI3Kα) were 30 to 100 nM and 20 to 50 nM, respectively.

For the molecule `C[C@@H]1CN(c2nc3c(N4CCOCC4)nc(-c4cnc(N)nc4)nc3n2[C@H]2CCN(S(C)(=O)=O)C2)C[C@H](C)N1` [Example 26, 5-{8-(cis-3,5-Dimethylpiperazin-1-yl)-9-[(3S)-1-(methylsulfonyl)pyrrolidin-3-yl]-6-morpholin-4-yl-9H-purin-2-yl}pyrimidin-2-amine], the GI50 in experiment [1], in experiment [2] and in experiment [4] was at most 5000 nM throughout. For the same molecule, the IC50 fell in the range of 100 to 500 nM in experiment [3] and 20 to 50 nM at PI3Kα.

As to `CS(=O)(=O)N1CCN(c2nc3c(N4CCOCC4)nc(-c4cnc(N)nc4)nc3n2[C@H]2CCN(S(C)(=O)=O)C2)CC1` [Example 27, 5-{8-[4-(Methylsulfonyl)piperazin-1-yl]-9-[(3S)-1-(methylsulfonyl)pyrrolidin-3-yl]-6-morpholin-4-yl-9H-purin-2-yl}pyrimidin-2-amine], the GI50 in experiment [1], in experiment [2] and in experiment [4] was at most 5000 nM each time. For the same molecule, the results for the IC50 (in experiment [3]; on PI3Kα) were 30 to 100 nM and 20 to 50 nM, respectively.

Turning to `CN(C)CCNc1nc2c(N3CCOCC3)nc(-c3cnc(N)nc3)nc2n1CC1CC1` [Example 28, N′-[2-(2-Aminopyrimidin-5-yl)-9-(cyclopropylmethyl)-6-morpholin-4-yl-9H-purin-8-yl]-N,N-dimethylethane-1,2-diamine], the GI50 in experiment [1], in experiment [2] and in experiment [4] was at most 5000 nM each time. The IC50 in experiment [3] fell in the range of 100 to 500 nM; on PI3Kα it was 10 to 20 nM.

As to `Nc1ncc(-c2nc(N3CCOCC3)c3nc(NCCN4CCOCC4)n(CC4CC4)c3n2)cn1` [Example 29, 2-(2-Aminopyrimidin-5-yl)-9-(cyclopropylmethyl)-6-morpholin-4-yl-N-(2-morpholin-4-ylethyl)-9H-purin-8-amine], the GI50 in experiment [1], in experiment [2] and in experiment [4] was at most 5000 nM throughout. The IC50 lay within 100 to 500 nM in experiment [3] and 10 to 20 nM on PI3Kα.

In the case of `Nc1ncc(-c2nc(N3CCOCC3)c3nc(NCCO)n(CC4CC4)c3n2)cn1` [Example 30, 2-{[2-(2-Aminopyrimidin-5-yl)-9-(cyclopropylmethyl)-6-morpholin-4-yl-9H-purin-8-yl]amino}ethanol], the GI50 in experiment [1], in experiment [2] and in experiment [4] was at most 5000 nM each time. The results for the IC50 (in experiment [3]; on PI3Kα) were 30 to 100 nM and 10 to 20 nM, respectively.

For `Nc1ncc(-c2nc(N3CCOCC3)c3nc(N4CCC(S(=O)(=O)c5ccccc5)C4)n(CC4CC4)c3n2)cn1` (stereo not shown) [Example 31, 5-{9-(Cyclopropylmethyl)-6-morpholin-4-yl-8-[3-(phenylsulfonyl)pyrrolidin-1-yl]-9H-purin-2-yl}pyrimidin-2-amine], the GI50 in experiment [1], in experiment [2] and in experiment [4] was at most 5000 nM each time. Further, the IC50 in experiment [3] was 30 to 100 nM; at PI3Kα it was under 10 nM.

In the case of `Cc1nc(N)ncc1-c1nc(N2CCOCC2)c2nc(NCCNS(C)(=O)=O)n(CC3CC3)c2n1` [Example 32, N-(2-{[2-(2-Amino-4-methylpyrimidin-5-yl)-9-(cyclopropylmethyl)-6-morpholin-4-yl-9H-purin-8-yl]amino}ethyl)methanesulfonamide], the GI50 in experiment [1], in experiment [2] and in experiment [4] was at most 5000 nM in each case. In addition, the IC50 is at least 500 nM in experiment [3] and 20 to 50 nM at PI3Kα.
